According to patent publication US20110165266A1 (priority 2008, published 2011):

System: ASLV-A vector RCASBP(A)-AP
Assay type: cell-based, avian sarcoma and leukosis virus (ASLV-A)

[O-][Cl+2]([O-])O [chlorate]
influence on infection by ASLV-A vector: did not influence infection
